Data set [1] deals with T1, Beta-2 adrenergic receptor (Homo sapiens, UniProt P07550). Nature of the data set: biochemical.
Description: Displacement of [125I]cyanopindolol from human recombinant beta2 adrenergic receptor expressed in CHO cells by filtration assay
The nature of data set [2]: Intrinsic clearance in rat liver microsomes assessed per mg of protein at 1 uM after 10 to 30 mins by LC/MS analysis in presence of NADPH. In kind it is ADME, Microsome.
The species named for the next data set is Cavia porcellus. Description: Inhibition of serotonin-induced bronchoconstriction in guinea pig assessed as intrinsic duration of bronchodilatory activity at ED80.
For data set [3] the following is noted: pH 7.4.
Description: Chromatographic hydrophobicity index at 2 mg/ml at pH 7.4 by rapid gradient HPLC analysis
A short description of data set [4]: Intrinsic clearance in rat liver microsomes assessed per mg of protein at 1 uM after 10 to 30 mins by LC/MS analysis in presence of UDP-glucuronic acid. In kind it is ADME, Microsome.
The next data set has as its target Albumin (Homo sapiens, UniProt P02768). Description: Binding affinity to human serum albumin by UV/HPLC analysis. The data set is classed as ADME. The note with it: isolated protein.
Data set [5] addresses T1, Beta-2 adrenergic receptor.
Description: Agonist activity at human beta2 adrenergic receptor assessed as increase in cAMP level by whole cell assay
Data set [6] is described as follows: Plasma protein binding in human at 1 to 2000 ng/mL after 3 hrs by liquid scintillation counting. The data set is classed as ADME, cell-free. The note with it: read-out: PPB (converted).
Data set [7] is described as follows: Fraction unbound in human plasma. In kind it is ADME, cell-free.
Data set [8] deals with Beta-2 adrenergic receptor (Cavia porcellus, UniProt Q8K4Z4).
Description: Agonist activity at beta2 adrenergic receptor in guinea pig tracheal strip assessed as inhibition of electrically-induced bronchocontractile response after 30 mins

Each structure is given as a SMILES string.

Chain of Beta-2 adrenergic receptor (Cavia porcellus, UniProt Q8K4Z4) (Q8K4Z4 whole entry): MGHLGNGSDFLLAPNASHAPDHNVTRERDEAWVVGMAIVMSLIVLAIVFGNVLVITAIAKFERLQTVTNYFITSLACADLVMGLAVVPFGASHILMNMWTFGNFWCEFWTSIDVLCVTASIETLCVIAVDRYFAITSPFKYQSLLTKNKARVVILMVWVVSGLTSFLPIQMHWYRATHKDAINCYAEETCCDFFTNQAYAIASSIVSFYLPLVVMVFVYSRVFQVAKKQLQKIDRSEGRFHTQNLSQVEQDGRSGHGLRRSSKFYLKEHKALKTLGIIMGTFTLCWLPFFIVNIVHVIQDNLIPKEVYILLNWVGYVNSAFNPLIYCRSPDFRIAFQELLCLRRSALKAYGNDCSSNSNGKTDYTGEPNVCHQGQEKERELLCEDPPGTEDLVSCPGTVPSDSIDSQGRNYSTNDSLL
T1 sequence (P07550 whole entry): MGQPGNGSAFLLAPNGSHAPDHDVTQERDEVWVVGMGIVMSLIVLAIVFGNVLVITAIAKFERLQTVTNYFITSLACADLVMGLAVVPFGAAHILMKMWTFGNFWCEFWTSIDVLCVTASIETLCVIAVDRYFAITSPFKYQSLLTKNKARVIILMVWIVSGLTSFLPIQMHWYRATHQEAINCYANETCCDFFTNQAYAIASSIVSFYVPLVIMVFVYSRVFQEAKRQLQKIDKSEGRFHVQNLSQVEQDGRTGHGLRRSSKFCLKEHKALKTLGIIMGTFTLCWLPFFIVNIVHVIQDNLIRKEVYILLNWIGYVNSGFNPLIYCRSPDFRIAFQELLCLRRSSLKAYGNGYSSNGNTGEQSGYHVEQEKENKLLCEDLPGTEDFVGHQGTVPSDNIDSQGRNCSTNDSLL
Chain of Albumin (P02768 whole entry): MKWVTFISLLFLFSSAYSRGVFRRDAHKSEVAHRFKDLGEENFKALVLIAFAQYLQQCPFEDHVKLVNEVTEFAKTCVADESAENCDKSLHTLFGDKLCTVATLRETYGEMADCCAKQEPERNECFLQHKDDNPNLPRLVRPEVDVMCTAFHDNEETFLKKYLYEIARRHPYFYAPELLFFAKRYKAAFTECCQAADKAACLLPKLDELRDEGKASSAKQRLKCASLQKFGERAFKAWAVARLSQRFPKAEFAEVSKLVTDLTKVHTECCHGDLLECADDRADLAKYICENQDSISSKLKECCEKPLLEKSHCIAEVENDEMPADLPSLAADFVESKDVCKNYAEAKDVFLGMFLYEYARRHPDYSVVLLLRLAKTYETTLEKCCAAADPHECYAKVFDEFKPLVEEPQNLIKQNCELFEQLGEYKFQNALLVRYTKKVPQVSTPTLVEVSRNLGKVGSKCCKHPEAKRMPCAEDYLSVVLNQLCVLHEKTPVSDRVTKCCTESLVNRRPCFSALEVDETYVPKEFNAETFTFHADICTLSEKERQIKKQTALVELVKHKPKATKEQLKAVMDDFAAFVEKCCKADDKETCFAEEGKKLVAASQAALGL

Take `CCc1cc2c(cc1CC)CC(NC[C@H](O)c1ccc(O)c3[nH]c(=O)ccc13)C2` [INDACATEROL]: the inhibitory constant (Ki) (commonly a measure of affinity in units of concentration, obtained from inhibition or displacement) in data set [1] is 76 nM. Further, the microsomal CLint (usually a measure of how fast metabolising enzymes remove a compound, apart from limits set by blood flow) at 1 µM in data set [2] turned out to be 76 µL/min/mg; in [4], 378 µL/min/mg. For the same compound, the Time in the data set filed under Cavia porcellus worked out at 24 h. For the same compound, the CHI in data set [3] worked out at 59.7. Also, the Activity at Albumin amounted to 95.7%. Moreover, it took 11 nM to reach a half-maximal effect in data set [5] (EC50). Further, in data set [6], the fraction unbound at 3 h is 0.049. Moreover, in data set [7], the fraction unbound amounted to 0.043.
`OCc1cc(C(O)CNCCCCCCOCCCCc2ccccc2)ccc1O` (centres undefined) [SALMETEROL] came in with a CHI in data set [3] of 56.7. The compound also displayed an Activity at Albumin of 91.1%.
Taken in the same sequence, the figures for `CC(C)(C)NCC(O)c1ccc(O)c(CO)c1` (centres undefined) [ALBUTEROL] were 21 and 29.9%.
`CCCc1cc2c(cc1CCC)CC(NC[C@H](O)c1ccc(O)c3[nH]c(=O)ccc13)C2`: the Ki in data set [1] was found to be 119 nM. This compound also gave a CHI in data set [3] greater than 70. The Activity on Albumin is 98.6%. The EC50 (commonly the concentration giving half of the maximal effect) in data set [5] amounted to 14 nM. Inhibition in [8] was half-maximal at 20 nM (IC50).
`CCc1cc2c(cc1CC)CC(NC[C@H](O)c1ccc(O[C@@H]3O[C@H](C(=O)O)[C@@H](O)[C@H](O)[C@H]3O)c3[nH]c(=O)ccc13)C2`: the Ki in data set [1] is greater than 10000 nM.
Consider `O=c1ccc2c([C@@H](O)CNC3Cc4ccccc4C3)ccc(O)c2[nH]1`, for which, in data set [1], the Ki is 218 nM. This compound gave a CHI in data set [3] of 38.2. In addition, at Albumin, the Activity is 63.8%. In addition, a half-maximal effect in [5] (EC50) was put at 5 nM. Further, the IC50 (as a rule, the point on the concentration scale where inhibition reaches its midpoint) in data set [8] was determined as 0.83 nM.
The compound `COc1cc2c(cc1OC)CC(NC[C@H](O)c1ccc(O)c3[nH]c(=O)ccc13)C2` registered an inhibitory constant (Ki) in data set [1] of 342 nM. In data set [3], this compound registered a CHI of 32.4. The compound further registered an Activity on Albumin of 59.5%. This compound also showed an EC50 in data set [5] of 18 nM. This compound gave an IC50 in data set [8] of 2.3 nM.
`CCCCc1cc2c(cc1CCCC)CC(NC[C@H](O)c1ccc(O)c3[nH]c(=O)ccc13)C2` gave an inhibition constant Ki in [1] of 112 nM. The compound further displayed a CHI in data set [3] greater than 70. Also, the Activity on Albumin was determined as 99.5%. This compound also gave an EC50 in [5] of 25 nM. The compound further displayed an IC50 in [8] greater than 1000 nM.
`Cc1cc2c(cc1C)CC(NC[C@H](O)c1ccc(O)c3[nH]c(=O)ccc13)C2`: affinity in data set [1] was put at a Ki of 522 nM. For the same compound, the CHI in data set [3] came out at 54.9. Also, the Activity on Albumin is 89.8%. In data set [5], the EC50 was found to be 39 nM. Besides, in data set [8], the half-inhibitory concentration (IC50) was 48 nM.
With `CCc1ccc(CC)c2c1CC(NC[C@H](O)c1ccc(O)c3[nH]c(=O)ccc13)C2`, the inhibition constant Ki in [1] was 692 nM. This compound had a CHI in data set [3] of 62.9. For the same compound, the Activity on Albumin stood at 94%. Besides, in data set [5], a half-maximal response (EC50) required 115 nM. Also, the half-inhibitory concentration (IC50) in data set [8] came to 75 nM.
In the case of `COc1ccc(C[C@@H](C)NC[C@H](O)c2ccc(O)c3[nH]c(=O)ccc23)cc1` [CARMOTEROL], the inhibition constant (Ki) in data set [1] turned out to be 3.19 nM. In [3], this compound came in with a CHI of 37.7. The Activity on Albumin worked out at 57.1%. Also, the EC50 in data set [5] worked out at 0.76 nM. Also, the IC50 in data set [8] was found to be 0.3 nM.

Values taken from ChEMBL document CHEMBL1157120, “The identification of indacaterol as an ultralong-acting inhaled beta2-adrenoceptor agonist” (J Med Chem, 2010).
